{"source": "patent US20260240828A1", "about": "“GLYCOSPHINGOLIPID BIOSYNTHESIS INHIBITORS FOR TREATMENT OF TUMOURS DEPENDENT ON THE ONCOGENE GOLPH3 AND ON ONCOGENES OF THE GOLPH3 CLUSTER” (Golgenia S.R.L., priority 2023, published 2026)", "type_in_all_cases": "cell-based", "key": {"LnCap": {"test_system": "LnCap", "assay": "Chemoresistance: growth under adhesion with etoposide, p21 cell cycle arrest, LnCap", "details": "FIG. 2B", "experimental": "(§1) Eliglustat alone has no effect.\n(§2) The cells were treated with etoposide at a concentration ranging between 10 and 40 μM for 12-16 hours.\n(§3) The p21 levels were determined by immunoblotting as cycle arrest index."}, "DU145": {"test_system": "DU145", "assay": "Chemoresistance: growth under adhesion with etoposide, p21 cell cycle arrest, DU145", "details": "FIG. 2B", "experimental": "as §1, §2, §3"}, "GSL synthesis": {"test_system": "GSL synthesis", "assay": "Glycosphingolipid metabolism (radiolabelling of cell sphingosine, TLC)", "details": "at 50 micromolar miglustat", "excerpt": "To analyse the glycosphingolipid metabolites we used a method based on radiolabelling of cell sphingosine followed by extraction of metabolites and separation by thin-layer chromatography (TLC) as previously described in Rizzo et al., EMOJ, 2021."}, "[1]": {"test_system": "prostate, colon and liver tumour lines expressing an oncogene belonging to the GOLPH3 cluster", "assay": "Growth under anchorage-independent conditions, lines expressing a GOLPH3 cluster oncogene", "details": "concentrations 0 to 50 micromolar, FIG. 2A1 top series", "experimental": "(§4) The growth of tumour lines was evaluated under different experimental conditions. 12 tumour lines, divided into six pairs derived from six different types of tumour, were used. […] The growth of the lines was observed under 3 experimental conditions: 1) absence of anchorage to the matrix; 2) exposure to chemotherapy agents; 3) undisturbed growth under adhesion to the matrix.\n(§5) Growth under conditions of adhesion to the matrix and absence of stress (bottom series, black) of the lines expressing an oncogene belonging to the GOLPH3 cluster is not inhibited by miglustat. Inhibition of GSL synthesis was about 70% (at 50 micromolar miglustat).\n(§6) GCS enzyme inhibitors such as miglustat, eliglustat and N-[(1R,2R)-2-(2,3-dihydro-1,4-benzodioxin-6-yl)-2-hydroxy-1-(1-pyrrolidinylmethyl)ethyl]-nonanamide (Genz-123346), or P-gp inhibitors such as zosuquidar, were used at two or three different concentrations, depending on the type of dose, to blockade glycosphingolipid biosynthesis in various tumour cells. For the growth assays, new media supplemented with the medicaments were added every three days.\n(§7) • 1. Growth in the absence of anchorage (anchorage-independent) • 2. Growth of isolated cell clones (clonogenic analysis) • 3. Growth under adhesion (under adhesion).\n(§8) Both the anchorage-independent and clonogenic growth tests were conducted as described previously in Rizzo et al., EMBOJ, 2021. […]"}, "[2]": {"test_system": "tumour lines deriving from the same tumour type which do not express GOLPH3", "assay": "Growth under anchorage-independent conditions, lines not expressing GOLPH3", "details": "0 to 50 micromolar; lines of same tumour type not expressing GOLPH3; FIG. 2A1 middle series", "experimental": "as §4, §5, §6, §7, §8"}, "[3]": {"test_system": "lines expressing an oncogene belonging to the GOLPH3 cluster", "assay": "Growth under adhesion to the matrix and absence of stress", "details": "lines expressing a GOLPH3 cluster oncogene; FIG. 2A1 bottom series", "experimental": "as §4, §5, §6, §7, §8"}}}
{"smiles": "COc1cc([C@@H]2c3cc4c(cc3[C@@H](O[C@@H]3O[C@@H]5CO[C@@H](C)O[C@H]5[C@H](O)[C@H]3O)[C@H]3COC(=O)[C@H]23)OCO4)cc(OC)c1O", "note": "[etoposide]", "values": [{"measurement": "cell cycle arrest (p21 synthesis), etoposide alone", "setting": "LnCap; not expressing a GOLPH3 cluster oncogene", "value": "cell cycle arrest (strong increase in p21 synthesis)"}, {"measurement": "response to etoposide alone (chemoresistance)", "setting": "DU145; DU145, expressing a GOLPH3 cluster oncogene", "value": "resistant"}]}
{"smiles": "CCCCCCCC(=O)N[C@H](CN1CCCC1)[C@H](O)c1ccc2c(c1)OCCO2", "note": "[eliglustat]", "values": [{"measurement": "effect of co-treatment on etoposide-induced cell cycle arrest", "setting": "LnCap; co-treatment with etoposide", "value": "does not modify said situation"}, {"measurement": "effect of co-treatment on resistance to etoposide", "setting": "DU145; DU145, co-treatment with etoposide", "value": "loses said resistance"}, {"measurement": "effect of inhibitor alone", "setting": "DU145; without etoposide", "value": "no effect"}]}
{"smiles": "CCCCN1C[C@H](O)[C@@H](O)[C@H](O)[C@H]1CO", "note": "[miglustat]", "values": [{"measurement": "inhibition at 50 µM", "setting": "GSL synthesis", "value": "~70", "unit": "%"}, {"measurement": "growth under anchorage-independent conditions", "setting": "[1]", "value": "inhibited"}, {"measurement": "growth under anchorage-independent conditions", "setting": "[2]", "value": "not inhibited"}, {"measurement": "growth under conditions of adhesion to the matrix and absence of stress", "setting": "[3]", "value": "not inhibited"}]}
